As a reminder, the IC50 is the concentration at which inhibition is half-maximal.

Structures are written as SMILES. Where two headings read alike, the source gives them in different places.

These results are taken from USRE39616E1, “Aminoindan derivatives” (priority 1996, dated 2007).

Data set [1] has as its target T1, MAO-B (Mus musculus, UniProt Q8BW75).
T1 construct: from tissue; host or cells: mouse brain
T1 sequence (Q8BW75 1-520): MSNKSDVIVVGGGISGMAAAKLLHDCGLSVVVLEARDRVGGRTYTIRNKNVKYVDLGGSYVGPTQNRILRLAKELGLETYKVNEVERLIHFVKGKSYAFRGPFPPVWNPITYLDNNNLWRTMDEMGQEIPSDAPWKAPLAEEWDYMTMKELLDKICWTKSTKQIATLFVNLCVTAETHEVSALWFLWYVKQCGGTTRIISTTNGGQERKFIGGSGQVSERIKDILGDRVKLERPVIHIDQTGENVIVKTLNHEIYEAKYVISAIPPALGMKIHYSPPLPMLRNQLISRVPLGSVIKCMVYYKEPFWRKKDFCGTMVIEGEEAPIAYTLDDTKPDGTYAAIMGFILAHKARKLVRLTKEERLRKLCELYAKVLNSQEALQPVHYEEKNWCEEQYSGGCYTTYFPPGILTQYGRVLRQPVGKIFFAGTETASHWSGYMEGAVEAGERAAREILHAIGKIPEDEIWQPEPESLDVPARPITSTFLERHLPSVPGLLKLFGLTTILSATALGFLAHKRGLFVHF
Kind of data set: Inhibition of MAO activity ex vivo (brain). Type of data set: in vivo, mice. The following applies: mice, brain tissue. As to the method:
(§1) Substrate concentrations used were 50 μM (PEA) and 1 mM (5-HT).
(§2) Male Sabra mice, weighing 45-50 g were injected with test compound solutions (prepared in 0.9% saline). Each dose was administered to two or three mice. The mice were sacrificed two hours after drug administration or at a time corresponding to the peak AChE inhibition time (see Table 11). The brain and liver were rapidly dissected and stored in appropriate vials on ice. The tissues were weighed, diluted to ½ in sucrose 0.3M and stored at −20° C. before performance of the MAO assay described above. The results given in Table 11 relate to measurements made on brain tissue only.

For data set [2], the target named is T2, MAO-A (Mus musculus, UniProt Q64133).
T2 construct: from tissue; host or cells: mouse brain
T2 sequence (Q64133 1-526): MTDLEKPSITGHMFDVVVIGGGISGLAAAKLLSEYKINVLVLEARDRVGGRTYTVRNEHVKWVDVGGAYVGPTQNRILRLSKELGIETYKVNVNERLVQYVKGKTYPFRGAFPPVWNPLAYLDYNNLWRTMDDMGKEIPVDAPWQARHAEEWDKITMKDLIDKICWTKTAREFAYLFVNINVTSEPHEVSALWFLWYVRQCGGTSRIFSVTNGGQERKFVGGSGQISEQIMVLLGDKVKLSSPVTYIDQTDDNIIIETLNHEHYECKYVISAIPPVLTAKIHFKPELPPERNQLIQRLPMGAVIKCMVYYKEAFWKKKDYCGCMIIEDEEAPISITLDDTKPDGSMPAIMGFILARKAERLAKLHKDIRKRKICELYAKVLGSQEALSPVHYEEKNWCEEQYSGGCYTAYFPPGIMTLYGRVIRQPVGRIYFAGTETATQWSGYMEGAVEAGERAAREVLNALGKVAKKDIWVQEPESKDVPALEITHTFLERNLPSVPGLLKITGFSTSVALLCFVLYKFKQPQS
Kind of data set: Inhibition of MAO activity ex vivo (brain). Type of data set: in vivo, mice. The following applies: mice, brain tissue. As to the method:
as §1, §2

The target in data set [3] is T3, Human erythrocyte acetylcholinesterase (Homo sapiens, UniProt P22303).
T3 construct: Human erythrocyte acetylcholinesterase (type XIII, Sigma Israel); purchased Sigma Israel type XIII; host or cells: human erythrocytes
Description: biochemical. The following applies: AChE Inhibition In vitro IC50. Type of data set: biochemical. As to the method:
Human erythrocyte acetylcholinesterase (type XIII, Sigma Israel), was prepared in a stock solution of 1 U/ml, containing Triton (1%) and bovine serum albumin (0.05%) in phosphate buffer (pH 8). The enzyme (0.05U) was incubated with 3-5 different concentrations of test compound (in triplicate) for periods of from 15 to 60 minutes at 37° C. […] The percentage inhibition of AChE by each concentration of drug is calculated by comparison with that of enzyme in the absence of drug.

A further data set deals with T4, whole brain AChE (Mus musculus, UniProt P21836).
T4 sequence (P21836 32-614): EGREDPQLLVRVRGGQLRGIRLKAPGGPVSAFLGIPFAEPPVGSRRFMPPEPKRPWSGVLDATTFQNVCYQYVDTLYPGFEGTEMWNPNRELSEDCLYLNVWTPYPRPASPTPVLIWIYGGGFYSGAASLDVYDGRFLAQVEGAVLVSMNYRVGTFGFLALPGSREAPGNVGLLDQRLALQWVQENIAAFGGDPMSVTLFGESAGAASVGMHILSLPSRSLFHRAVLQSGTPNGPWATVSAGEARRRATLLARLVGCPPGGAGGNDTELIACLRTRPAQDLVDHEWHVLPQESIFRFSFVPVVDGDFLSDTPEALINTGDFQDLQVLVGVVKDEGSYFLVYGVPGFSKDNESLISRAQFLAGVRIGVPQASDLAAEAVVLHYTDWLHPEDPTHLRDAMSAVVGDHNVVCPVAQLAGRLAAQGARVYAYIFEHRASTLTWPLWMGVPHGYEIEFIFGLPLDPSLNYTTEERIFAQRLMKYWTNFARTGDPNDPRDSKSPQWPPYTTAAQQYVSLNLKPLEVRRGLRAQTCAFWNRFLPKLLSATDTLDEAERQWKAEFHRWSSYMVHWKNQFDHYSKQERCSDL
The following applies: for AChE Inhibition Ex vivo ED50 (AC): mice, whole brain, at peak of activity; for AChE Inhibition Time to peak activity t: mouse, in vivo.

A further data set deals with mice. The following applies: mouse, in vivo.
The target of data set [4] is T5, MAO-B (Rattus norvegicus, UniProt P19643).
T5 sequence (P19643 1-520): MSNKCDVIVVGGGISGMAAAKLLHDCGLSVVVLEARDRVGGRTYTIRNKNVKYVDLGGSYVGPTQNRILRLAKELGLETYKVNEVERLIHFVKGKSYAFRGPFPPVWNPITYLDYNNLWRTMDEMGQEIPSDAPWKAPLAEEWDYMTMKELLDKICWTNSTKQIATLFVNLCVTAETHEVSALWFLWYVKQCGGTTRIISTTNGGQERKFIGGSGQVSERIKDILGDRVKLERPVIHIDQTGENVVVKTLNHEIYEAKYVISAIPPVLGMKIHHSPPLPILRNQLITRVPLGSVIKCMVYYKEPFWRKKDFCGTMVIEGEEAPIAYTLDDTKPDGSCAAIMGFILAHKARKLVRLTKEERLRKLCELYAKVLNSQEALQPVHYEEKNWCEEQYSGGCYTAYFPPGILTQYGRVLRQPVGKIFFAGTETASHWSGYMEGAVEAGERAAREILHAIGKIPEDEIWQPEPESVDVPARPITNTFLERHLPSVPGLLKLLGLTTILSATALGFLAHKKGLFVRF
Kind of data set: Inhibition of MAO activity in vitro, PEA as substrate. The data set is classed as biochemical. Set-up: The MAO enzyme source was a homogenate of rat brain in 0.3M sucrose; from tissue; host or cells: rat brain homogenate, 600 g supernatant. As to the method:
as §1

Data set [5] has as its target T6, MAO-A (Rattus norvegicus, UniProt P21396).
T6 sequence (P21396 1-526): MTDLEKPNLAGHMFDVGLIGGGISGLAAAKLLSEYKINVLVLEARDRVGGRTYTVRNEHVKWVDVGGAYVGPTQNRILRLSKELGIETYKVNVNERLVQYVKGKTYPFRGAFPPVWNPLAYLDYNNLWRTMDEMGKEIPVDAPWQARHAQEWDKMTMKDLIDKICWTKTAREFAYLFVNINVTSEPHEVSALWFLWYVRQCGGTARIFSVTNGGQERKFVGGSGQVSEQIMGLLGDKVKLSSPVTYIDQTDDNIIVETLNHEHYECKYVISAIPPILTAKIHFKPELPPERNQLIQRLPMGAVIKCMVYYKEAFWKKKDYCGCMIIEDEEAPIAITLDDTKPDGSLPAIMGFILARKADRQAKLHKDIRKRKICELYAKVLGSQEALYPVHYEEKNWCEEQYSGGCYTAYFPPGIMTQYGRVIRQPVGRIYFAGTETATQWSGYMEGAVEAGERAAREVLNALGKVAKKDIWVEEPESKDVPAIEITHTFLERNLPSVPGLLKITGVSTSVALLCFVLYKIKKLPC
Description: Inhibition of MAO activity in vitro, 5-HT as substrate. The settings on record: 5-HT substrate. Also noted: The MAO enzyme source was a homogenate of rat brain in 0.3M sucrose; from tissue; host or cells: rat brain homogenate, 600 g supernatant. Type of data set: biochemical. As to the method:
as §1

The mark [6] stands for this setting: MAO-B Inhibition In vitro IC50, rat brain homogenate.
Where [7] appears, read: MAO-A Inhibition In vitro IC50, rat brain homogenate.
Where [8] appears, read: rat brain homogenate, read-out: MAO-B Inhibition In vitro IC50.
Setting [9] is: rat brain homogenate, read-out: MAO-A Inhibition In vitro IC50.

T3 sequence (P22303 32-617 isoform P22303-2 limits assumed): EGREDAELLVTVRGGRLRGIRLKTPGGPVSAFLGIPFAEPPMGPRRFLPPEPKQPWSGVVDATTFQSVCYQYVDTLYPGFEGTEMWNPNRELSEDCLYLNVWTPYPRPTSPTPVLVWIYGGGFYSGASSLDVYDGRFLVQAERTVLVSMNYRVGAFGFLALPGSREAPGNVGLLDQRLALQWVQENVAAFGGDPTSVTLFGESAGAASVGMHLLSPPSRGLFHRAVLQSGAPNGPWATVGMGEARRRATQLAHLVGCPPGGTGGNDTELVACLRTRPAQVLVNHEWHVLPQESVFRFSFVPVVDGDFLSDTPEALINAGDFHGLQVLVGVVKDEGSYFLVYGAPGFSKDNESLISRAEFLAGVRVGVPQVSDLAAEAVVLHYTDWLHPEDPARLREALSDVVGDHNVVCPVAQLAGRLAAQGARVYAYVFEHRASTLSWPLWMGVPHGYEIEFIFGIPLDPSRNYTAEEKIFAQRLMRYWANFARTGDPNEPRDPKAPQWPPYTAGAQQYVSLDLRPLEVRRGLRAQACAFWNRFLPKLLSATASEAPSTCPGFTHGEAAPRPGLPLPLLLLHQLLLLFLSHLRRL
Description for mice: Therapeutic Ratio was calculated as LD50 divided by ED50 of ex vivo acetylcholine esterase inhibition.
Description for whole brain AChE: Test drugs or saline were administered sub-cutaneously to male mice (Sabra strain, 28-35 g). […] The mice were sacrificed 15, 30, 50, 70, 90, 120 or 180 minutes after drug administration, the brains rapidly removed (minus cerebellum), weighed and homogenized in 0.1 M phosphate buffer, pH 8.0, containing Triton (1 mg/100 g tissue) and centrifuged to remove cell debris. Aliquots (25 μl) of the supernatant were then incubated with acetylthiocholine and DTNB. AChE activity was measured as described above. The % inhibition of whole brain AChE by each dose of drug was calculated by comparison with enzyme activity from 3 saline treated control mice run at the same time.

With `C#CCNC1CCc2ccc(OC(=O)N(C)CCC)cc21` (centres unmarked) [Compound 26], the “MAO-B Inhibition Ex vivo ED50” value at MAO-B [1] was found to be 333 µmol/kg. Further, on MAO-A [2], the “MAO-A Inhibition Ex vivo ED50” value is >>440 μmoles/kg. Further, in data set [3], the IC50 came to 17 µM. On whole brain AChE, the “AChE Inhibition Ex vivo ED50 (AC)” value came out at 120 µmol/kg and the “AChE Inhibition Time to peak activity t” value lay within 30 to 60 min. In the data set with mice, the “Acute Toxicity LD50 (LD)” value stood at 1200 µmol/kg and the “Therapeutic Ratio LD/AC” value is listed as 9. On MAO-B [4] (setting [6]), the IC50 came out at 264 µM. At MAO-A [5] (setting [7]), this molecule yielded a half-maximal inhibitory concentration (IC50) of 114 µM.
Turning to `C#CCN(C)C1CCc2cccc(OC(=O)N(C)C)c21` (centres unmarked) [Compound 32], the “MAO-B Inhibition Ex vivo ED50” value at MAO-B [1] is given as >>20 μmoles/kg. In addition, the “MAO-A Inhibition Ex vivo ED50” value at MAO-A [2] is on record as >>20 μmoles/kg. In data set [3], this molecule returned an IC50 of 3.7 µM. Besides, on whole brain AChE, the “AChE Inhibition Ex vivo ED50 (AC)” value came to 7.8 µmol/kg and the “AChE Inhibition Time to peak activity t” value is given as 15 min. In the data set with mice, the “Acute Toxicity LD50 (LD)” value came to 68 µmol/kg and the “Therapeutic Ratio LD/AC” value was 9.0. The molecule further gave an IC50 against MAO-B [4] (setting [6]) of 500 µM. This molecule displayed a half-inhibitory concentration (IC50) at MAO-A [5] (setting [7]) of 190 µM.
As to `C#CCNC1CCc2ccc(OC(=O)N(C)CCCCCC)cc21` (centres unmarked) [Compound 36], on MAO-B [1], the “MAO-B Inhibition Ex vivo ED50” value was more than 100 µmol/kg. Further, the “MAO-A Inhibition Ex vivo ED50” value at MAO-A [2] was more than 100 µmol/kg. Besides, the figures for the IC50 (in data set [3]; on MAO-B [4] (setting [6]); against MAO-A [5] (setting [7])) were 15 µM, more than 1000 µM and more than 1000 µM, respectively. Further, on whole brain AChE, the “AChE Inhibition Ex vivo ED50 (AC)” value is more than 400 µmol/kg. Besides, in the data set with mice, the “Acute Toxicity LD50 (LD)” value is more than 1000 µmol/kg.
As to `C#CCNC1CCc2ccc(OC(=O)N(C)c3ccccc3)cc21` (centres unmarked) [Compound 62], the “MAO-B Inhibition Ex vivo ED50” value at MAO-B [1] was >>200 μmoles/kg. For the same molecule, the “MAO-A Inhibition Ex vivo ED50” value on MAO-A [2] is on record as >>200 μmoles/kg. For the same molecule, the 50% inhibitory concentration (IC50) in data set [3] turned out to be 0.57 µM; on MAO-B [4] (setting [8]), 100 µM; at MAO-A [5] (setting [9]), 80 µM. Also, the “AChE Inhibition Ex vivo ED50 (AC)” value at whole brain AChE worked out at 290 µmol/kg. Further, the “AChE Inhibition Time to peak activity t” value at whole brain AChE was determined as 60 min.
Turning to `C#CCNC1CCc2ccc(OC(=O)N(C)Cc3ccccc3)cc21` (centres unmarked) [Compound 63], the “MAO-B Inhibition Ex vivo ED50” value on MAO-B [1] is more than 300 µmol/kg. In addition, at MAO-A [2], the “MAO-A Inhibition Ex vivo ED50” value was more than 300 µmol/kg. Also, the concentration for half-maximal inhibition (IC50) came to 2.5 µM in data set [3], 120 µM on MAO-B [4] (setting [8]) and 40 µM on MAO-A [5] (setting [9]). The “AChE Inhibition Ex vivo ED50 (AC)” value at whole brain AChE worked out at 140 µmol/kg. Further, the “AChE Inhibition Time to peak activity t” value on whole brain AChE was in the range of 60 to 90 min. Also, the “Acute Toxicity LD50 (LD)” value in the data set with mice came to 1300 µmol/kg. In the data set on mice, the “Therapeutic Ratio LD/AC” value is 9.3.
